# Columns and labels:
# [1] = test system: metallothionein (MT) mRNA; test: Bioavailability of different zinc compositions in chickens, MT mRNA in jejunum mucosal scrapings by QRT-PCR; type: in vivo, chicken; details: 70 ppm zinc in corn-soy diet for 2 days (day 21 to 23); six birds per treatment; 18S-normalized; P≦0.05
# Method: Chickens were fed a low zinc pre-feed diet for 20 days. On day 21, they were switched to a corn-soy diet supplemented with one of the following: 1) unsupplemented for zinc (control); 2) 70 ppm zinc from ZnOxide; 3) 70 ppm zinc from a zinc amino acid complex (Zn AAC); 4) 70 ppm zinc from Zn(HMTBA)2. On day 23, six birds from each treatment were weighed, sacrificed, and jejunum samples were collected. The lumen was rinsed with 3-4 ml of cold saline, the jejunum was cut open lengthwise, and the mucosal surface was scraped with a glass slide. Cell scrapings were collected into 0.9 ml of RNAlater. RNA was isolated as described in Example 1. QRT-PCR was performed as described in Example 1, and 18S-normalized MT mRNA expression was determined.
# [2] = test system: metallothionein (MT) mRNA; test: Induction of metallothionein (MT) mRNA by zinc in chicken tissues, QRT-PCR; type: in vivo; details: high zinc diet (34 ppm basal + 64 ppm zinc from Zn(HMTBA)2) vs low zinc diet (34 ppm); day 29; normalized to 18S rRNA; one bird per group
# Description: Zinc treatment and sample collection. Upon hatching, chicks were placed on a moderately Zn-deficient starter diet. On day 13, they were switched to two different test diets: some were fed a low zinc diet with no zinc supplements (the diet contained 34 ppm zinc in the basal feedstuffs) and the rest were fed a high zinc diet comprising 34 ppm zinc in the feedstuffs and 64 ppm zinc from Zn(HMTBA)2 for a total of 98 ppm zinc. On day 29, a chicken from each group was sacrificed and the following tissues were collected: jejunum (small intestine), jejunum mucosal scrapings, liver, and kidney. The lumen of a 2-3 inch long jejunum section was rinsed with 3-4 ml of cold saline. The jejunum was cut open lengthwise and placed mucosa-side up on a clean cutting board. One piece of jejunum, no greater than 0.5 cm in any direction, was placed into a microcentrifuge tube containing 0.9 ml of RNAlater solution, and stored according to the manufacturer's instructions (Ambion, Austin Tex.). The jejunum section's remaining mucosal surface was scraped with a glass slide. Cell scrapings were collected and placed into 0.9 ml RNAlater. The other tissues were stored in RNAlater. RNA was isolated using the High Pure RNATissue Prep Kit (Roche Applied Science, Cat No 12033674001) following the manufacturer's instructions. The concentration of RNA was determined using a spectrophotometer, and the concentration of RNA was adjusted to a maximum of 0.5 mg/ml by dilution with elution buffer. The RNA samples were either used immediately, or frozen on dry ice and stored at −80° C. until use.
# Reverse Transcriptase and Quantitative PCR. First strand cDNA synthesis was performed using the Transcriptor Reverse Transcriptase® (Roche Applied Science, Indianapolis, Ind., catalog #04379012001), using the instructions supplied by the manufacturer. Each first-strand synthesis reaction contained 0.5 μg of total RNA. The reverse transcription was performed in a thermocycler using the following program: a brief, 90 sec denaturation step at 65° C.; annealing for 30 sec at 40° C.; 30 min cDNA synthesis at 55° C.; and enzyme inactivation by 5 min denaturation at 85° C. The reaction product was concentrated by ethanol precipitation, rinsed and dried. The sample was then resuspended in 400 μl of nuclease-free water and A260/A280 was measured to ensure that cDNA concentration in each sample would fall within the range of concentration usable by the QRT-PCR assay.
# MT mRNA and 18S rRNA levels were measured by QRT-PCR on a Roche LightCycler®, using the LightCycler® FastStart DNA Master HybProbe Kit (Roche Molecular Systems, Inc, Alameda, Calif., catalog #300324) using 0.5 μM of each primer and 0.2 μM of each TaqMan probe, as shown in Table 1. […]
# [3] = test system: metallothionein (MT) mRNA; test: Time course of zinc-induced expression of metallothionein in chicken jejunum, QRT-PCR; type: in vivo
# Description: A total of 54 chickens were fed a low zinc/low copper milo starter diet for 10 days. On day 11 (t=Day 0), the birds were split into two groups: 18 were fed a corn-soy diet supplemented with 25 ppm copper oxide and no zinc (“Cu”) and 36 were fed a corn-soy diet supplemented with 25 ppm copper oxide and 70 ppm zinc from Zn(HMTBA)2 (“Cu+Zn(HMTBA)2”). On days 13 (t=Day 2), 16 (t=Day 5) and 19 (t=Day 8), three “Cu” and three “Cu+Zn(HMTBA)2” birds per day were weighed and sacrificed. The mid-jejunum was collected from each bird. The lumen was rinsed with 3-4 ml of cold saline, and each sample was divided into two pieces, with each piece being no larger than 0.5 cm in any direction. The two pieces from each bird were placed in separate microcentrifuge tubes containing 0.9 ml of RNAlater solution.
# RNA was isolated (RNA from the two pieces from each bird were pooled), and 18S-normalized MT mRNA expression levels were measured by QRT-PCR as described in Example 1. The data are expressed as MT mRNA expression relative to the low zinc jejunum reference sample from Example 1.
fold induction of MT mRNA in jejunum [2] [fold],fold induction of MT mRNA in jejunum mucosal scrapings [2] [fold],fold induction of MT mRNA in kidney [2] [fold],fold induction of MT mRNA in liver [2] [fold],SMILES,levels of MT mRNA induced in jejunum mucosal scrapings [1],"MT mRNA expression in jejunum, overall effect of treatment ([3]; 70 ppm zinc from Zn(HMTBA)2 + 25 ppm copper oxide vs 25 ppm copper oxide only, days 2, 5, 8, P=0.0077)","MT mRNA expression in jejunum, difference between treatments by day ([3]; Cu+Zn(HMTBA)2 vs Cu diet, three birds per treatment per day, days 2, 5 and 8)"
,,,,"[O-2].[Zn+2] [ZnOxide, zinc oxide, reference compound]",not significantly greater than MT expression in the unsupplemented birds,,
34,125,9,19,CSCCC(O)C(=O)[O-].CSCCC(O)C(=O)[O-].[Zn+2] (centres unmarked) [Zn(HMTBA)2],significantly greater than those induced by ZnOxide or the Zn AAC,increased MT expression,Significant differences in MT expression are seen between treatments on days 5 and 8
